Laboratory results reported in patent US11708348B2, “Protease inhibitors for treatment of coronavirus infections” (The Scripps Research Institute, priority 2021, dated 2023).
Read-outs that look alike come from different tables or passages of the source.

Key:
[1] = test system: SARS-CoV-2 strain USA-WA1/2020; assay: microbe, parasite or virus in culture; type: cell-based; details: HeLa-ACE2 cells, SARS-CoV-2 infection, 24 h, read-out: EC50, uM (Hela)
[2] = test system: hospitalized COVID-19 patients; details: large multi-center trial; cited from earlier work
COVID-2 M^pro protease = COVID-2 M^pro protease (Severe acute respiratory syndrome coronavirus 2, UniProt P0DTD1); details: cell and enzyme assays; cited from earlier work
[3] = Severe acute respiratory syndrome coronavirus 2, HeLa-ACE2, 24 h

Molecule	EC50 [1, 3] [µM]	mortality of hospitalized COVID-19 patients [2]	further results
CC(C)C[C@H](NC(=O)C(=O)Nc1ccccc1F)C(=O)N[C@@H](C[C@@H]1CCNC1=O)C(=O)COc1ccnc(C(F)(F)F)n1 [Compound 788, N^1-(2-fluorophenyl)-N^2—((S)-4-methyl-1-oxo-1-(((S)-3-oxo-1-((S)-2-oxopyrrolidin-3-yl)-4-((2-(trifluoromethyl)pyrimidin-4-yl)oxy)butan-2-yl)amino)pentan-2-yl)oxalamide]	0.2 to 0.5		
CC(C)C[C@H](NC(=O)C1CC2(CC2)CO1)C(=O)N[C@@H](C[C@@H]1CCNC1=O)C(=O)COC(F)(F)F (stereo partly drawn) [Compound 789, N-((S)-4-methyl-1-oxo-1-(((S)-3-oxo-1-((S)-2-oxopyrrolidin-3-yl)-4-(trifluoromethoxy)butan-2-yl)amino)pentan-2-yl)-5-oxaspiro[2.4]heptane-6-carboxamide]	< 0.05		
CCN(CCO)CCCC(C)Nc1ccnc2cc(Cl)ccc12 (stereo not drawn) [hydroxychloroquine]		failed to reduce mortality	
Cc1cccc(C)c1OCC(=O)N[C@@H](Cc1ccccc1)[C@@H](O)C[C@H](Cc1ccccc1)NC(=O)[C@H](C(C)C)N1CCCNC1=O [lopinavir]		failed to reduce mortality	
COCC(=O)[C@H](C[C@@H]1CCNC1=O)NC(=O)[C@H](CC(C)C)NC(=O)c1cc2c(OC)cccc2[nH]1 [methyl ether of PF-00835231]			fold less active than PF-00835231 (COVID-2 M^pro protease): 3-5 fold
(S)-4-methyl-2-((l- methyl-1H-indole)-5- sulfonamido)-N-((S)- 3-oxo-1-((S)-2- oxopyrrolidin-3-yl)-4- (trifluoromethoxy)butan- 2-yl)pentanamide [Compound 463]			EC50 [1]: 0.2 to 0.5 µM
